Measurements published in PubChem BioAssay (NCI).
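Cultured in 96-well plates, cells were exposed to test compound for 48 hours across five concentrations. At the GI50, growth is halved. TGI: concentration producing complete growth inhibition.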

Legend:
Test in all cases: NCI tumour cell line growth inhibition, 48 h
[1] = system: MCF7 breast
[2] = system: HCT-15 colon
[3] = system: MOLT-4 leukemia
[4] = system: SK-MEL-5 melanoma
[5] = system: BT-549 breast
[6] = system: MALME-3M melanoma
[7] = system: OVCAR-4 ovarian
[8] = system: SR leukemia
[9] = system: OVCAR-5 ovarian
[10] = system: SK-OV-3 ovarian
[11] = system: NCI-H460 lung
[12] = system: M14 melanoma
[13] = system: OVCAR-8 ovarian
[14] = system: MDA-MB-435
[15] = system: UACC-257 melanoma
[16] = system: A549 NSCLC
[17] = system: RPMI-8226 leukemia
[18] = system: DU-145 prostate
[19] = system: HOP-92 NSCLC
[20] = system: SW-620 colon
[21] = system: NCI-H522 lung
[22] = system: NCI-H23 lung
[23] = system: SK-MEL-28 melanoma
[24] = system: SN12C renal
[25] = system: HL-60(TB) leukemia
[26] = system: SF-268 CNS
[27] = system: U251 CNS
[28] = system: SNB-19 CNS
[29] = system: T-47D breast

Compound: COC(=O)c1oc2c(C(=O)/C=C/c3ccc(OC)cc3)c(OCCN3CCOCC3)ccc2c1C
- GI50 [1]: 970 nM
- TGI [1]: 7330 nM
- GI50 [2]: 1460 nM
- TGI [2]: 3120 nM
- GI50 [3]: 1240 nM
- TGI [3]: 3720 nM
- GI50 [4]: 1690 nM
- TGI [4]: 3170 nM
- GI50 [5]: 2420 nM
- TGI [5]: 7910 nM
- GI50 [6]: 2470 nM
- TGI [6]: 6540 nM
- GI50 [7]: 2480 nM
- TGI [7]: > 44200 nM
- GI50 [8]: 287 nM
- TGI [8]: 1290 nM
- GI50 [9]: 2380 nM
- TGI [9]: 6680 nM
- GI50 [10]: 2920 nM
- TGI [10]: 8610 nM
- GI50 [11]: 1910 nM
- TGI [11]: 4750 nM
- GI50 [12]: 3110 nM
- TGI [12]: 12100 nM
- GI50 [13]: 1800 nM
- TGI [13]: 4700 nM
- GI50 [14]: 2370 nM
- TGI [14]: 7340 nM
- GI50 [15]: 1990 nM
- TGI [15]: 4250 nM
- GI50 [16]: 2220 nM
- TGI [16]: 6070 nM
- GI50 [17]: 1570 nM
- TGI [17]: 4200 nM
- GI50 [18]: 1750 nM
- TGI [18]: 4240 nM
- GI50 [19]: 1540 nM
- TGI [19]: 5480 nM
- GI50 [20]: 1880 nM
- TGI [20]: 4430 nM
- GI50 [21]: 1610 nM
- TGI [21]: 3540 nM
- GI50 [22]: 1910 nM
- TGI [22]: 5460 nM
- GI50 [23]: 2330 nM
- TGI [23]: 5190 nM
- GI50 [24]: 1780 nM
- TGI [24]: 5910 nM
- GI50 [25]: 1440 nM
- TGI [25]: 4290 nM
- GI50 [26]: 2050 nM
- TGI [26]: 5760 nM
- GI50 [27]: 1400 nM
- TGI [27]: 2740 nM
- GI50 [28]: 1650 nM
- TGI [28]: 4150 nM
- GI50 [29]: 1510 nM
- TGI [29]: 6830 nM
